Measurements published in PubChem BioAssay AID248 (DTP/NCI, 2004).
Where “and” joins values, the source holds several entries; their conditions need not be identical. Identical values can stand only once. Toxic doses and inconclusive results are not listed. No stated cut-off is given here; in the data, active means T/C of 150% or more; inactive means T/C below 125%.

Test system: L1210 leukemia ip in BDF1 mice, survival T/C
Test: NCI In Vivo Anticancer Drug Screen. Data for tumor model L1210 Leukemia (intraperitoneal) in B6D2F1 (BDF1) mice
Conditions: endpoint: mean survival time, higher = longer survival
Summary of the method: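 Read-out is survival time, reported as the treated-group measurement over the vehicle-control measurement.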

[1] = dose: 100.0 mg/kg/injection, schedule: Q01DX009 (ip), vehicle: saline with Tween-80
[2] = dose: 200.0 mg/kg/injection, schedule: Q01DX009 (ip), vehicle: saline with Tween-80
[3] = dose: 400.0 mg/kg/injection, schedule: Q01DX009 (ip), vehicle: saline with Tween-80
[4] = dose: 100.0 mg/kg/injection, schedule: Q04DX003 (ip), vehicle: saline with Tween-80
[5] = dose: 200.0 mg/kg/injection, schedule: Q04DX003 (ip), vehicle: saline with Tween-80
[6] = dose: 400.0 mg/kg/injection, schedule: Q04DX003 (ip), vehicle: saline with Tween-80
[7] = dose: 100.0 mg/kg/injection, schedule: Q04DX002 (ip), vehicle: saline with Tween-80
[8] = dose: 200.0 mg/kg/injection, schedule: Q04DX002 (ip), vehicle: saline with Tween-80
[9] = dose: 400.0 mg/kg/injection, schedule: Q04DX002 (ip), vehicle: saline with Tween-80
[10] = dose: 100.0 mg/kg/injection, schedule: Q01DX009 (ip), vehicle: Klucel (hydroxypropylcellulose) (HPC)
[11] = dose: 200.0 mg/kg/injection, schedule: Q01DX009 (ip), vehicle: Klucel (hydroxypropylcellulose) (HPC)
[12] = dose: 400.0 mg/kg/injection, schedule: Q01DX009 (ip), vehicle: Klucel (hydroxypropylcellulose) (HPC)
[13] = dose: 25.0 mg/kg/injection, schedule: Q01DX009 (ip), vehicle: Klucel (hydroxypropylcellulose) (HPC)
[14] = dose: 100.0 mg/kg/injection, schedule: Q04DX003 (ip), vehicle: saline
[15] = dose: 200.0 mg/kg/injection, schedule: Q04DX003 (ip), vehicle: saline

Measured: T/C

CC1CC(=O)NN1 (centres undefined)
inactive: [1] 94 % of control | [2] 90 % of control | [3] 96 % of control

Cc1cc(N)n(C(N)=O)n1
inactive: [1] 102 % of control | [4] 106 % of control | [2] 110 % of control | [5] 107 % of control | [3] 108 % of control | [6] 109 % of control

CC1(C(N)=O)CCC(C(=O)O)C1(C)C (centres undefined)
inactive: dose: 50.0 mg/kg/injection, schedule: Q01DX001 (ip), vehicle: carboxymethylcellulose (CMC) 103 % of control | dose: 100.0 mg/kg/injection, schedule: Q01DX001 (ip), vehicle: carboxymethylcellulose (CMC) 109 % of control | dose: 200.0 mg/kg/injection, schedule: Q01DX001 (ip), vehicle: carboxymethylcellulose (CMC) 103 % of control | dose: 400.0 mg/kg/injection, schedule: Q01DX001 (ip), vehicle: carboxymethylcellulose (CMC) 103 % of control

CCN(c1ccccc1)P(I)(c1ccccc1)(c1ccccc1)c1ccccc1
inactive: dose: 1.17 mg/kg/injection, schedule: Q01DX001 (ip), vehicle: other 107 % of control | dose: 2.34 mg/kg/injection, schedule: Q01DX001 (ip), vehicle: other 114 % of control | dose: 4.69 mg/kg/injection, schedule: Q01DX001 (ip), vehicle: other 107 % of control

Cc1cc(OC(=O)Nc2ccc(Cl)cc2Cl)c(C)cc1Cl
inactive: dose: 12.5 mg/kg/injection, schedule: Q01DX009 (ip), vehicle: saline with Tween-80 95 % of control | dose: 25.0 mg/kg/injection, schedule: Q01DX009 (ip), vehicle: saline with Tween-80 91 % of control | dose: 50.0 mg/kg/injection, schedule: Q01DX009 (ip), vehicle: saline with Tween-80 91 % of control | [1] 98 % of control

O=C(Nc1cccc2c1N(C(=O)c1ccco1)CCC2)c1ccco1
inactive: [1] 98 % of control | [4] 94 % of control | [2] 101 % of control | [5] 96 % of control | [3] 95 % of control | [6] 96 % of control

COC(=O)c1ccccc1OC(=O)Nc1ccc(SC)cc1
inactive: dose: 50.0 mg/kg/injection, schedule: Q04DX002 (ip), vehicle: saline with Tween-80 96 % of control and 91 % of control | [1] 96 % of control | [7] 96 % of control and 104 % of control and 86 % of control | [4] 100 % of control | [2] 94 % of control and 89 % of control | [8] 95 % of control and 104 % of control | [5] 98 % of control | [3] 102 % of control and 115 % of control | [9] 93 % of control and 105 % of control and 107 % of control | [6] 97 % of control

COc1cccc(C(Cc2ccccc2)NCc2ccccc2)c1 (centres undefined)
inactive: [10] 91 % of control | [11] 91 % of control | [12] 96 % of control

CN=C(c1ccc(NC(=O)c2ccc(C(=O)Nc3ccc(C(=NC)N(C)C)cc3)cc2)cc1)N(C)C
inactive: dose: 0.94 mg/kg/injection, schedule: Q01DX Z (ip), vehicle: saline 94 % of control | dose: 1.88 mg/kg/injection, schedule: Q01DX Z (ip), vehicle: saline 101 % of control | dose: 3.75 mg/kg/injection, schedule: Q01DX Z (ip), vehicle: saline 97 % of control | dose: 7.5 mg/kg/injection, schedule: Q01DX Z (ip), vehicle: saline 111 % of control

C[C@@H]1CC2=CC(=O)CC[C@]2(C)[C@H]2CC[C@]3(C)[C@@H](O)CC[C@H]3[C@H]12
inactive: [1] 92 % of control | [2] 112 % of control | [3] 100 % of control

COc1cc2ccccc2cc1C(=O)NN
inactive: dose: 75.0 mg/kg/injection, schedule: Q04DX003 (ip), vehicle: Klucel (hydroxypropylcellulose) (HPC) 94 % of control | dose: 150.0 mg/kg/injection, schedule: Q04DX003 (ip), vehicle: Klucel (hydroxypropylcellulose) (HPC) 102 % of control | dose: 300.0 mg/kg/injection, schedule: Q04DX003 (ip), vehicle: Klucel (hydroxypropylcellulose) (HPC) 97 % of control

CCC#CC(=O)CC
inactive: dose: 7.5 mg/kg/injection, schedule: Q04DX003 (ip), vehicle: saline 94 % of control | dose: 15.0 mg/kg/injection, schedule: Q04DX003 (ip), vehicle: saline 94 % of control | dose: 30.0 mg/kg/injection, schedule: Q04DX003 (ip), vehicle: saline 95 % of control

O=C1/C(=C/c2ccc(Br)cc2)Cc2ccccc21
inactive: [7] 94 % of control | [8] 90 % of control | [9] 90 % of control

c1ccc(C2O[O][Sn]([c]3ccccc3)([c]3ccccc3)[O]2)cc1 (centres undefined)
inactive: dose: 25.0 mg/kg/injection, schedule: Q04DX002 (ip), vehicle: gum acacia 97 % of control | dose: 50.0 mg/kg/injection, schedule: Q04DX002 (ip), vehicle: gum acacia 111 % of control | dose: 100.0 mg/kg/injection, schedule: Q04DX002 (ip), vehicle: gum acacia 105 % of control and 86 % of control

CC1(C)OC2OC(COC(=O)c3ccc([N+](=O)[O-])cc3)C(OC(=O)c3ccc([N+](=O)[O-])cc3)C2O1 (centres undefined)
inactive: dose: 100.0 mg/kg/injection, schedule: Q01DX001 (ip), vehicle: steriod suspending solution 87 % of control | dose: 200.0 mg/kg/injection, schedule: Q01DX001 (ip), vehicle: steriod suspending solution 95 % of control | dose: 400.0 mg/kg/injection, schedule: Q01DX001 (ip), vehicle: steriod suspending solution 104 % of control

C=C[CH2][Sn]([Br])([c]1ccccc1)[c]1ccccc1
inactive: dose: 1.56 mg/kg/injection, schedule: Q01DX009 (ip), vehicle: saline with Tween-80 89 % of control | dose: 3.13 mg/kg/injection, schedule: Q01DX009 (ip), vehicle: saline with Tween-80 92 % of control

C/C=C\C=N\NC(=O)CCCCCCCCCCC
inactive: [13] 105 % of control | dose: 50.0 mg/kg/injection, schedule: Q01DX009 (ip), vehicle: Klucel (hydroxypropylcellulose) (HPC) 91 % of control | [10] 100 % of control and 90 % of control

CCCCCCCCCC1CCC(C(=O)O)CC1 (centres undefined)
inactive: dose: 75.0 mg/kg/injection, schedule: Q01DX009 (ip), vehicle: Klucel (hydroxypropylcellulose) (HPC) 105 % of control | dose: 150.0 mg/kg/injection, schedule: Q01DX009 (ip), vehicle: Klucel (hydroxypropylcellulose) (HPC) 96 % of control | dose: 300.0 mg/kg/injection, schedule: Q01DX009 (ip), vehicle: Klucel (hydroxypropylcellulose) (HPC) 98 % of control

Cc1cc(Cl)c(Cl)cc1NC(=O)c1cccc([N+](=O)[O-])c1
inactive: [10] 93 % of control | [11] 96 % of control | [12] 100 % of control

CN(CCc1cnc2nc(N)nc(N)c2n1)c1ccc(C(=O)NC(CCC(=O)O)C(=O)O)cc1 (centres undefined)
inactive: dose: 12.5 mg/kg/injection, schedule: Q01DX009 (ip), vehicle: Klucel (hydroxypropylcellulose) (HPC) 113 % of control | [13] 118 % of control | [14] 110 % of control | [15] 105 % of control

O=S(=O)(c1ccccc1)C(Cl)c1cccc(Cl)c1 (centres undefined)
inactive: dose: 100.0 mg/kg/injection, schedule: Q04DX002 (ip), vehicle: Klucel (hydroxypropylcellulose) (HPC) 105 % of control | dose: 200.0 mg/kg/injection, schedule: Q04DX002 (ip), vehicle: Klucel (hydroxypropylcellulose) (HPC) 101 % of control | dose: 400.0 mg/kg/injection, schedule: Q04DX002 (ip), vehicle: Klucel (hydroxypropylcellulose) (HPC) 122 % of control

CC(C)C(C#N)(CCN1CCCCC1)c1cccc2ccccc12 (centres undefined)
inactive: [10] 92 % of control

O=[N+]([O-])c1ccccc1NC1c2ccccc2Oc2ccccc21
inactive: dose: 100.0 mg/kg/injection, schedule: Q04DX003 (ip), vehicle: Klucel (hydroxypropylcellulose) (HPC) 96 % of control | dose: 200.0 mg/kg/injection, schedule: Q04DX003 (ip), vehicle: Klucel (hydroxypropylcellulose) (HPC) 93 % of control | dose: 400.0 mg/kg/injection, schedule: Q04DX003 (ip), vehicle: Klucel (hydroxypropylcellulose) (HPC) 93 % of control

CCCCCCCCCCCCSCCCCSCCCCCCCCCCCC
inactive: dose: 100.0 mg/kg/injection, schedule: Q01DX001 (ip), vehicle: Klucel (hydroxypropylcellulose) (HPC) 93 % of control | dose: 200.0 mg/kg/injection, schedule: Q01DX001 (ip), vehicle: Klucel (hydroxypropylcellulose) (HPC) 89 % of control | dose: 400.0 mg/kg/injection, schedule: Q01DX001 (ip), vehicle: Klucel (hydroxypropylcellulose) (HPC) 91 % of control

CC(=O)c1ccc[n+](Cc2ccc3c(c2)OCO3)c1
inactive: dose: 75.0 mg/kg/injection, schedule: Q01DX001 (ip), vehicle: carboxymethylcellulose (CMC) 103 % of control | dose: 150.0 mg/kg/injection, schedule: Q01DX001 (ip), vehicle: carboxymethylcellulose (CMC) 109 % of control

CC(=O)N1Cc2cc3ccccc3nc2C1
inactive: [14] 98 % of control | [15] 107 % of control | dose: 400.0 mg/kg/injection, schedule: Q04DX003 (ip), vehicle: saline 96 % of control

O=C(O)Cc1ccc(Br)cc1
inactive: [4] 93 % of control | [5] 96 % of control | [6] 102 % of control
